Eleven compounds from patent US7544700B2, “Pharmaceutically active sulfonamide derivatives bearing both lipophilic and ionisable moieties as inhibitors of protein JunKinases” (Laboratoires Serono SA, priority 2000, dated 2009) can be followed below.

One may read the IC50 as the concentration at which inhibition is half-maximal. The term solubility denotes the dissolved amount per volume that the medium holds. A high value points to a readily soluble substance.

Data set [1] has as its system IL-2 release by (PMA+Ionomycin)-stimulated Jurkat cells. Put plainly: IL-2 release assay (IL-2 ELISA). The format is cell-based. The conditions noted are these: Homo sapiens; PMA + Ionomycine stimulated Jurkat cells. The protocol:
The Ability of the Compounds According to Formula I to Modulate the Inflammatory Response by Inhibiting the Release of IL-2 was Assessed Using the Following Protocol
JNK pathway activation triggers the production of inflammatory cytokines such as IL-2. JNK can be activated by external stimuli such as PMA and Ionomycine and IL-2 production can be measured via an IL-2 ELISA test. Comparative measurements with and without the compounds of the invention according to the following protocol measure the ability of the compounds to prevent to stress-mediated IL-2 release.
Jurkat cells, a human T cell leukemia cell line (American Type Culture Collection # TIB 152) were cultured in RPMI 1640 medium (Gibco, BRL) supplemented with 10% of […] fetal calf serum (FCS), Glutamine and Penstrep. The cell suspension in the medium is diluted to give 2.10^6 cells/mL. The cells were plated (2.10^5 cells/well) on a 96-well plate containing different concentrations of a compound according to formula I (final concentration of compounds, 10, 3, 1, 0.3, 0.1 μM). This mixture is incubated 30 minutes at 37° C. in a humidified CO2 atmosphere. Cells were then treated with 10 μl PMA (Phorbolmyristate-13 Acetate-12)+Ionomycine (0.1 μM and 1 μM final concentration) in all wells except negative control. In wells without compounds, 10 μl of RPMI 2% DMSO (=0.1% final) is added. Cells are incubated 24 hours at 37° C. and then the supernatant harvested (freeze at −20° C. if not used the same day) prior to performing IL-2 ELISA test on the supernatant.
IL-2 release into the medium by (PMA+Iononomycin)-stimulated Jurkat cells, in presence or absence of test compounds may be assayed by ELISA. Following the procedure described below.
Monoclonal anti-human IL-2 antibody (MAB602) (capture), biotinylated anti-human IL-2 antibody (BAF202) (detection) and recombinant human IL-2 (202-IL-010) (standard) from From R&D Systems are used. […]
• 1. […] Optical density is measured using a microtiter plate reader set to 450 nm with correction at 570 nm.

The target in another data set is GST-JNK3 (Homo sapiens, UniProt P53779). Put plainly: JNK3 in vitro assay (33P incorporation into c-jun, SPA). The format is biochemical. The method, then:
(§1) The phosphorylation of c-jun by JNK2 or JNK3 may be followed by monitoring the incorporation of ^33P into c-jun following the protocol below. The inhibitory activity of the compounds according to formula I, in respect of c-jun phosphorylation through JNK, is determined by calculating the phosphorylation activity of a JNK in the presence or absence of the test compounds according to formula I.
(§2) JNK3 and/or -2 assays are performed in 96 well NM plates: incubation of 0.5 μg of recombinant, pre-activated GST-JNK3 or GST-JNK2 with 1 μg of recombinant, biotinylated GST-c-Jun and 2 μM ^33γ-ATP (2 nCi/μl), in the presence or absence of compounds according to formula I and in a reaction volume of 50 μl containing 50 mM Tris-HCl, pH 8.0; 10 mM MgCl2; 1 mM Dithiothreitol, and 100 μM NaVO4. The incubation is performed for 120 min. at R.T and stopped upon addition of 200 μl of a solution containing 250 μg of Streptavidine-coated SPA beads (Amersham, Inc.)*, 5 mM EDTA, 0.1% Triton X-100 and 50 μM ATP, in phosphate saline buffer. After incubation for 60 minutes at RT, beads are sedimented by centrifugation at 1500×g for 5 minutes, resuspended in 200 μl of PBS containing 5 mM EDTA, 0.1% Triton X-100 and 50 μM ATP and the radioactivity measured in a scintillation β counter, following sedimentation of the beads as described above. By replacing biotinylated GST-c Jun with biotinylated GST-1ATF2 or biotinylated myelin basic protein, this assay may also be used to measure inhibition of pre-activated p38 and ERK MAP Kinases, respectively.

Another data set has as its target GST-JNK2 (Homo sapiens, UniProt P45984). Description: JNK2 in vitro assay (33P incorporation into c-jun, SPA). The format is biochemical. The method, then: as §1, §2
Another data set is described as follows: Solubility in water. Particulars: pH 7.4, aqueous buffer, pH of 7.4 at room temperature. The format is physicochemical. The method, then: The compounds have been assessed in respect of their solubility in water, at a pH of 7.4 at room temperature. In general the solubility of compounds of formula (I) is in a range of at least 50 μg/mL solvent, more preferably of at least 100 μg/mL solvent. For instance compounds (63), (163), (198) display a solubility in water of at least 200 μg/mL solvent.

The target of another data set is JNK1 (Homo sapiens, UniProt P45983). Description: JNK1 inhibition. The format is biochemical. Particulars: read-out: inhibition (IC50) with regard to JNK1.
The subject of data set [2] is Hela luciferase reporter-c-Jun (HLR-c-Jun) cell lines. Description: C-Jun reporter assay. Particulars: Homo sapiens, MEKK-1 transfected HLR-c-Jun cells. The format is cell-based. From the text: The phosphorylation of the transcriptional factor, c-jun, by JNK in the MAP kinase signal transduction pathway can be followed via a trans-reporting system such as the commercially available PathDetect® (32).
A trans-reporting system allows one to follow, via Luciferase activity, the activation status of a fusion trans-activator protein. The trans-activator protein consists of the activation domain of the transcriptional factor of interest (c-jun) fused with a yeast transcriptional activator, GAL4 DNA binding domain (dbd). The GAL4 dbd has the advantage that no known mammalian transcriptional factors can bind to it and therefore the background noise of the assay is very low.
In the present case, Hela luciferase reporter-c-Jun (HLR-c-Jun) cell lines which constitutively express GAL4-cJun were used.
The MEKK-1 gene was inserted. MEKK-1 is a MAPKKK which triggers the activation of JNK. Expression of wild type MEKK-1 is sufficient for JNK activation (33).
Once, JNK is activated it can induce the phosphorylation of the c-jun domain of the fusion trans-activator protein (GAL4dbd-cJun) which forms a dimer. The dimer is then is able to bind to a GAL4 upstream activating sequence (GAL4 UAS) of the reporter which activates Luciferase expression.
Luciferase expression is detected by luminescence using a simple assay such as Dual-Luciferase® Reporter Assay System (34) in which Renilla is used as a “control reporter”.
Inhibition of JNK is observed as a decrease in Luciferase expression and detected by a decrease in luminescence.
HLR-c-Jun cells are cultured in DMEM High Glc supplemented with 10% FCS (Sigma), 2 mM Glutamine (Gibco), P/S, Hygromycin b 100 μg/mL and G418 250 μg/mL.
The cell suspensions are diluted with medium to give about 3.5×10^6 cells/mL and […] of cell suspension are put onto 2 10 cm culture dishes containing 9 mL of culture medium.
Transfections • Control: 0.2 μg pTK Renilla, 5.8 μg pBluescript KS, 500 μl OPTIMEM (GOBCO), 18 μl Fugene 6. • Induced: 0.1 μg pMEKK1, 0.2 μg pTK Renilla, 5.7 μg pBluescript KS, 500 μl OPTIEM (GIBCO), 18 μl Fugene 6 30′ RT.
The transfection mixture is added to the plated cells. The plates are incubated over night at 37° C. in a humidified atmosphere of 5% CO2 in air.
A 96 wells plate (100 μl of culture medium per well) is prepared. Negative control (vehicle): 2 μl of DMSO is added to the 100 μl (in triplicate). […]
The medium is removed from the plate and the cells are washed two times with 100 μl PBS. […] The luminometer reading is recorded.
−50 μl of Luciferase Assay Reagent II are injected and readings are recorded at 5 and 10 minutes.
50 μl of Stop & Glo® Reagent are injected and readings are recorded at 5 and 10 minutes.
The relative luminescence is then measured: RLU Luciferase/RLU Renilla.
In general terms: Reporter assays use an easily measured gene product as a stand-in for the process of interest.

Sequence of GST-JNK3 (P53779 whole entry): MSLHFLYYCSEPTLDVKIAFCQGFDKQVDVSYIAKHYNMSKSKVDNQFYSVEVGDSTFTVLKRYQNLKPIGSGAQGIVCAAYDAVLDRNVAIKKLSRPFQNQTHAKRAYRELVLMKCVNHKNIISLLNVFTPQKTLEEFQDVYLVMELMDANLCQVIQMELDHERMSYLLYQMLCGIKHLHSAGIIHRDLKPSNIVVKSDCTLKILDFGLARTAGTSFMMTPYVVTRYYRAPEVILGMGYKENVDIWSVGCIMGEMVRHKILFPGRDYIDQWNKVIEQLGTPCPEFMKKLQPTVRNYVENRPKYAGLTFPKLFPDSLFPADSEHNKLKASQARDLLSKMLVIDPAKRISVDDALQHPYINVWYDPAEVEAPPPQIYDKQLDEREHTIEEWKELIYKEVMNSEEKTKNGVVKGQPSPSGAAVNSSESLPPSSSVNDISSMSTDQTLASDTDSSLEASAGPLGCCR
Sequence of GST-JNK2 (P45984 whole entry): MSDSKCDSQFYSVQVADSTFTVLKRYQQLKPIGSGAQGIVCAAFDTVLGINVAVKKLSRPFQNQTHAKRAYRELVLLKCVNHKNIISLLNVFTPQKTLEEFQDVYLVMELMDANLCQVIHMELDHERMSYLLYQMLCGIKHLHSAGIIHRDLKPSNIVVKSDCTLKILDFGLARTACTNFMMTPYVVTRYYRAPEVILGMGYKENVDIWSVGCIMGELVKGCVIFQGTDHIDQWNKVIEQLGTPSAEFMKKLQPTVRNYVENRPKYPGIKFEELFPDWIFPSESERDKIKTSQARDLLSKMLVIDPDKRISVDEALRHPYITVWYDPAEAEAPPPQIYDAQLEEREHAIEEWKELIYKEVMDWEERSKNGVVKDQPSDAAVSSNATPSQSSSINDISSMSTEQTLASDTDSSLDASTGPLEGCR
Sequence of JNK1 (P45983 whole entry, species assumed): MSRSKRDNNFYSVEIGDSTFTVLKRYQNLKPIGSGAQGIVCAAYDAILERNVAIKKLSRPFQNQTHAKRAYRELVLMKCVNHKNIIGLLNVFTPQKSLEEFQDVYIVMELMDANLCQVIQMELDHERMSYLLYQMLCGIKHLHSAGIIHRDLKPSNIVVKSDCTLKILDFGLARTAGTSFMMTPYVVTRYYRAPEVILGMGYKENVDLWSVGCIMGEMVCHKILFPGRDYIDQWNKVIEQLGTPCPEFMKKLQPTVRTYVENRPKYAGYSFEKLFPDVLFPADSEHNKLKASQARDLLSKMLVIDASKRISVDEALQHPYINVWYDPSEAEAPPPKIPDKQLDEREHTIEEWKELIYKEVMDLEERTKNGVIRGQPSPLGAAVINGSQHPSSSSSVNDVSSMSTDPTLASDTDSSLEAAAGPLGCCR

On to `COc1cccc(C(=O)NCc2ccc(S(=O)(=O)N3CCC(NCc4ccc(S(=O)(=O)C(F)(F)F)cc4)CC3)s2)c1` [Example 64, 3-methoxy-N-[(5-{[4-({4-[(trifluoromethyl)sulfonyl]benzyl}-amino)piperidin-1-yl]sulfonyl}thien-2-yl)methyl]benzamide], for which, in data set [1], the IC50 was less than 800 nM.
Regarding `O=C(NCc1ccc(S(=O)(=O)N2CCC(NCCC3CCCCC3)CC2)s1)c1ccc(Cl)cc1` [Example 70, 4-chloro-N-{[5-({4-[(2-cyclohexylethyl)amino]piperidin-1-yl}sulfonyl)thien-2-yl]methyl}benzamide], the half-inhibitory concentration (IC50) against GST-JNK3 and against GST-JNK2 was less than 600 nM in each case.
As to `CCCCCNCC1CCN(S(=O)(=O)c2ccc(CNC(=O)c3cccc(OC)c3)s2)CC1` [Example 195, 3-methoxy-N-{[5-({4-[(pentylamino)methyl]piperidin-1-yl}sulfonyl)-thien-2-yl]methyl}benzamide], the IC50 against GST-JNK3 and on GST-JNK2 was less than 600 nM in each case.
In turn, `CCCCCCN(C)C1CCN(S(=O)(=O)c2ccc(CNC(=O)c3ccc(Cl)cc3)s2)CC1` [Example 163, 4-chloro-N-{[5-({4-[hexyl(methyl)amino]piperidin-1-yl}sulfonyl)thien-2-yl]methyl}benzamide] returned a solubility in the data set “Solubility in water” not below 200 µg/mL.
With `CCCCCCCCCCNC1CCN(S(=O)(=O)c2ccc(CNC(=O)c3cccc(OC)c3)s2)CC1` [Example 86, 3-methoxy-N-[(5-{[4-(decylamino)piperidin-1-yl]sulfonyl}thien-2-yl)methyl]benzamide], the half-maximal inhibitory concentration (IC50) on JNK1 was in the range of 100 to 700 nM.
For `COc1cccc(C(=O)NCc2ccc(S(=O)(=O)N3CCC(NCCCN4CCOCC4)C3)s2)c1` (stereo not drawn) [Example 176, 3-methoxy-N-{[5-({3-[(3-morpholin-4-ylpropyl)amino]pyrrolidin-1-yl}sulfonyl)thien-2-yl]methyl}benzamide], the IC50 against GST-JNK3 and against GST-JNK2 was less than 600 nM throughout.
In data set [2], `O=C(NCc1ccc(S(=O)(=O)N2CCC(NCc3ccc(S(=O)(=O)C(F)(F)F)cc3)CC2)s1)c1ccc(Cl)cc1` [Example 117, 4-chloro-N-[(5-{[4-({4-[(trifluoromethyl)sulfonyl]benzyl}amino)-1-piperidinyl]sulfonyl}-2-thienyl)methyl]benzamide] came in with an IC50 of less than 700 nM.
Turning to `COc1cccc(C(=O)NCc2ccc(S(=O)(=O)N3CCCC(NCCC4CCCCC4)CC3)s2)c1` (stereo not drawn) [Example 132, N-{[5-({4-[(2-cyclohexylethyl)amino]azepan-1-yl}sulfonyl)thien-2-yl]methyl}-3-methoxy-benzamide], the IC50 against GST-JNK3 was less than 600 nM.
Turning to `CCCCCCN(CC1CCCCC1)C1CCN(S(=O)(=O)c2ccc(CNC(=O)c3ccc(Cl)cc3)s2)CC1` [Example 155, 4-chloro-N-{[5-({4-[(cyclohexylmethyl)(hexyl)-amino]piperidin-1-yl}sulfonyl)thien-2-yl]methyl}-benzamide], the half-maximal inhibitory concentration (IC50) against GST-JNK3 and on GST-JNK2 was less than 600 nM throughout.
The compound `CCCOc1ccc(CNC2CCN(S(=O)(=O)c3ccc(CNC(=O)c4cccc(OC)c4)s3)CC2)cc1` [Example 11, 3-methoxy-N-{[5-({4-[(4-propoxybenzyl)amino]piperidin-1-yl}sulfonyl)thien-2-yl]methyl}benzamide] registered a concentration for half-maximal inhibition (IC50) in data set [2] of less than 700 nM.
On the same count and under the same terms, the value for `COc1cccc(C(=O)NCc2ccc(S(=O)(=O)N3CCC(NCc4c(C)c(C)c(C)c(C)c4C)CC3)s2)c1` [Example 10, 3-methoxy-N-{[5-({4-[(2,3,4,5,6-pentamethylbenzyl)amino]piperidin-1-yl}sulfonyl)thien-2-yl]methyl}benzamide] was less than 700 nM.
